The values that follow come from patent publication US4101656A, “7β-Acylamino-3-(alkanesulfonamidoalkyl substituted tetrazolylthiomethyl) cephalosporins, antibacterial compositions containing them and methods of treating bacterial infections with them” (Smithkline Corporation, priority 1976, dated 1978).

The subject of assay [1] is S. aureus SK 23390. Description: in vitro MIC testing, S. aureus SK 23390. In kind it is cell-based. How it is done:
(§1) The compounds of Formula I have exceptional antibacterial activity against both Gram-positive and Gram-negative organisms. Minimum inhibitory concentrations (MIC's) range from 0.2 to >200 μg/ml in in vitro testing. Test results for the compound 7β-D-mandelamido-3-[1-(2-methanesulfonamidoethyl)tetrazol-5-ylthiomethyl]-3-cephem-4-carboxylic acid sodium salt hydrate (Compound A) are given below: […]

For assay [2], the system named is Proteus morgani 179. Description: in vitro MIC testing, Proteus morgani 179. Format: cell-based. To be noted: two values given. How it is done: as §1
Assay [3] relates to Strep. faecalis HH 34358. Description: in vitro MIC testing, Strep. faecalis HH 34358. Format: cell-based. How it is done: as §1
Assay [4] relates to Pseudo. aerug. HH 63. Description: in vitro MIC testing, Pseudo. aerug. HH 63. Format: cell-based. The method, then:
as §1

Assay [5] concerns Serratia marc. ATCC 13880. In words: in vitro MIC testing, Serratia marc. ATCC 13880. In kind it is cell-based. To be noted: ATCC13880, two values given. The method, then:
as §1

Assay [6] relates to Entero. cloacae HH 31254. Description: in vitro MIC testing, Entero. cloacae HH 31254. Format: cell-based. The following applies: Enterobacter cloacae, HH31254. The method, then: as §1
In assay [7] the test system is E. coli 12140. Description: in vivo mouse protection test, E. coli 12140. How it is done:
(§2) 4200 upon subcutaneous injection; cefazolin gave results of 4 mg/kg against E. coli 12140 and 11.3 mg/kg against Kleb. pneumo. 4200 upon subcutaneous administration.

For assay [8], the system named is E. coli HH 33779. Description: in vitro MIC testing, E. coli HH 33779. Format: cell-based. How it is done:
as §1

The subject of assay [9] is Proteus mirabilis 444. Description: in vitro MIC testing, Proteus mirabilis 444. Format: cell-based. How it is done:
as §1

Assay [10] deals with Salmonella ATCC 12176. In words: in vitro MIC testing, Salmonella ATCC 12176. In kind it is cell-based. To be noted: ATCC12176, two values given. The method, then:
as §1

The test system of assay [11] is Entero aerog. ATCC 13048. In words: in vitro MIC testing, Entero aerog. ATCC 13048. Format: cell-based. To be noted: two values given. How it is done:
as §1

The subject of assay [12] is E. coli SK 12140. In words: in vitro MIC testing, E. coli SK 12140. In kind it is cell-based. The following applies: Escherichia coli, SK12140. How it is done: as §1
The subject of assay [13] is Kleb. pneumo. SK 4200. In words: in vitro MIC testing, Kleb. pneumo. SK 4200. Format: cell-based. The method, then: as §1
For assay [14], the system named is Shigella HH 117. Description: in vitro MIC testing, Shigella HH 117. In kind it is cell-based. To be noted: HH117. How it is done:
as §1

The test system of assay [15] is S. aureus HH 127. In words: in vitro MIC testing, S. aureus HH 127. Format: cell-based. How it is done:
as §1

In assay [16] the test system is Kleb. pneumo. SK 1200. In words: in vitro MIC testing, Kleb. pneumo. SK 1200. In kind it is cell-based. The method, then:
as §1

Assay [17] concerns Kleb. pneumo. 4200. Description: in vivo mouse protection test, Kleb. pneumo. 4200. To be noted: sc. The method, then:
as §2

The mark [18] stands for this setting: two values given, sodium salt hydrate.

Converted amounts (≈) assume the structure as drawn. Where two headings read alike, the source gives them in different places.

Regarding `Cc1nnc(SCC2=C(C(=O)O)N3C(=O)[C@@H](NC(=O)Cn4cnnn4)[C@H]3SC2)s1` [Cefazolin, reference compound], the MIC was 0.2 µg/mL (≈ 0.44 µM) in assay [1] (Staphylococcus aureus, SK23390, two values given, read-out: MIC); 200 µg/mL (≈ 440 µM) in [2] (read-out: MIC); 6.3 µg/mL (≈ 13.9 µM) in assay [3] (Enterococcus faecalis, HH34358, two values given, read-out: MIC); over 200 µg/mL in assay [4] (Pseudo. aerug. HH 63, two values given, read-out: MIC); over 200 µg/mL in assay [5]; 0.8 µg/mL (≈ 1.76 µM) in assay [6] (Entero. cloacae HH 31254, two values given, read-out: MIC). In addition, the MIC in assay [8] (Escherichia coli, HH33779, two values given, read-out: MIC) was 1.6 µg/mL (≈ 3.52 µM); in assay [9] (read-out: MIC), 3.1 µg/mL (≈ 6.82 µM); in [10], 0.8 µg/mL (≈ 1.76 µM); in assay [11] (read-out: MIC), 1.6 µg/mL (≈ 3.52 µM); in assay [12] (E. coli SK 12140, two values given, read-out: MIC), 0.8 µg/mL (≈ 1.76 µM); in assay [13] (Kleb. pneumo. SK 4200, two values given, read-out: MIC), 1.6 µg/mL (≈ 3.52 µM). Besides, the minimal inhibitory concentration (MIC) was 0.4 µg/mL (≈ 0.88 µM) in assay [14]; 0.4 µg/mL (≈ 0.88 µM) in [15] (Staphylococcus aureus, HH127, two values given, read-out: MIC); 0.8 µg/mL (≈ 1.76 µM) in assay [16] (Kleb. pneumo. SK 1200, two values given, read-out: MIC). Further, the ED50 in assay [7] (Escherichia coli, sc, mouse protection, E. coli 12140, subcutaneous, read-out: ED50) came to 4 mg/kg; in assay [17] (mouse protection, Kleb. pneumo. 4200, subcutaneous, read-out: ED50), 11.3 mg/kg.

Consider `CS(=O)(=O)NCCn1nnnc1SCC1=C(C(=O)[O-])N2C(=O)[C@@H](NC(=O)[C@H](O)c3ccccc3)[C@H]2SC1.O.[Na+]` [Compound A, 7β-D-mandelamido-3-[1-(2-methanesulfonamidoethyl)tetrazol-5-ylthiomethyl]-3-cephem-4-carboxylic acid sodium salt hydrate], for which the MIC is 0.8 µg/mL in assay [1] (Staphylococcus aureus, SK23390, two values given); 0.4 µg/mL in assay [1] (setting [18]); 1.6 µg/mL in assay [2]; 0.8 µg/mL in assay [2] (sodium salt hydrate); 25 µg/mL in assay [3] (Enterococcus faecalis, HH34358, two values given); 12.5 µg/mL in assay [3] (setting [18]). In addition, the MIC in assay [4] was over 200 µg/mL; in assay [6], 0.8 µg/mL; in assay [8] (Escherichia coli, HH33779, two values given), 1.6 µg/mL; in assay [8] (setting [18]), 0.8 µg/mL; in assay [9], 0.8 µg/mL; in assay [10], 0.4 µg/mL. Moreover, the MIC turned out to be 1.6 µg/mL in [11]; 0.8 µg/mL in assay [11] (sodium salt hydrate); 0.8 µg/mL in assay [12]; 0.4 µg/mL in assay [13]; 0.2 µg/mL in assay [14]; 3.1 µg/mL in assay [15] (Staphylococcus aureus, HH127, two values given). Further, the MIC came out at 1.6 µg/mL in [15] (setting [18]) and 0.4 µg/mL in assay [16]. The ED50 was found to be 0.39 mg/kg in assay [7] (Escherichia coli, 12140, sc) and 2.44 mg/kg in assay [17] (Mus musculus).
